Columns and labels:
[1] = test system: T2 cells loaded with individual peptides; test: 51Cr Release Assay for activity of CTL generated with peptide-loaded Drosophila aAPC; format: cell-based, human; parameters: key to CTL Activity: Strong (S); Median (M); Weak (W); None (N); conditions: for Ability to induce CTL in normal donors: truncated and computer predicted peptides; for Induction of CTL in two normal donors: Donor 1 and Donor 2, FIG. 3 and FIG. 4; for CTL Activities Median: number of donors that elicited Median activity over total number of donors; for CTL Activities Median / CTL Activities Strong / CTL Activities Weak / CTL Activities None: T2 targets loaded with individual peptide; for CTL Activities Strong: number of donors that elicited Strong activity over total number of donors; for CTL Activities Weak: number of donors that elicited Weak activity over total number of donors; for CTL Activities None: number of donors that elicited no activity over total number of donors
Method: Drosophila aAPC were generated from Schneider S2 cells (S2 cells), which were originally established in 1969 from several hundred Oregon-R (wild type) Drosophila melanogaster (Oregon-R) embryos (American Type Culture Collection (ATCC) CRL-1963) according to published procedures (Schneider, J. Embryol. Exp. Morph. 1972 Vol 27, pp. 353-365), and deposited in the ATCC(CRL10974). S2 cells are grown in commercial Schneider's Drosophila medium supplemented with 10% heat-inactivated fetal bovine serum. In order to generate aAPCs, human complementary DNAs (cDNAs) for HLA-A2.1, B7.1, LFA-3, ICAM-1 and CD70, were individually inserted into the pRmHa-3 vector and S2 cells were transfected using the calcium phosphate precipitation method with a mixture of HLA-A2.1, B7.1, LFA-3, ICAM-1 and CD70 plasmid DNAs (for aAPC clone 1120) and the phshneo plasmid. (see U.S. Pat. No. 6,225,042 regarding construction and use of pRMHa plasmid vectors). The human cDNAs were prepared using standard techniques by reverse transcription-PCR using primers derived from the published sequences for HLA-A2.1 from K562 cells, B7.1 from K562 cells, LFA-3 from HL60 cells, ICAM-1 from K562 cells, and CD70 from HLA-A2.1+LCL cells. K562 cells are a human erythroleukemic cell line, HL60 cells are a promyelocytic leukemia human cell line, and HLA-A2.1+LCL cells are an Epstein-Barr virus (EBV)-transformed lymphoblastoid cell line (LCL). Stably transfected cells were selected by culturing in Schneider's medium containing geneticin. Prior to scale up of the cells, expression of the transfected genes is induced by the addition of CuSO4. The level of expression is assessed by flow cytometry using anti-HLA-A2.1, anti-B7.1, anti-LFA-3, anti-ICAM-1 and CD70 antibodies. For efficient in vitro activation of the CD8+ lymphocytes, greater than 30% of the Drosophila cells must express the HLA-A2.1 molecule. The Drosophila cells regularly express each of the molecules at levels between 70-90%. Drosophila aAPC were washed and then incubated at RT for 4 hours with 10 μM of different combinations of mixed peptides or individual peptides (See e.g. U.S. Pat. Nos. 6,225,042, 6,355,479, 6,362,001 and 6,790,662; U.S. Patent Application Publication Nos. 2009/0017000 and 2009/0004142; and International Publication No. WO2007/103009). Purified human CD8+ T cells from HLA-A2 positive donors were then incubated with peptide-loaded Drosophila APC at 37° C., 5% CO2, for 5 days. Human IL-2 (20 U/ml, R&D Systems) and IL-7 (30 U/ml, R&D Systems) were added at day 5 and the activated CD8+ T cells (CTL) were re-stimulated twice, at day 7 and day 15, with non-CD8 adherent cells in a total peripheral blood mononuclear cell (PBMC) preparation from the same donor in the presence of peptides.
A number of different CTL were generated using CD8+ T cells from different donors and different combinations of mixed peptides, including combinations that contained only one peptide. For example, 24 selected peptides were mixed or used individually to create different combinations of peptide mixtures (PM) or individual peptides (P5 and P14) and produce peptide-loaded Drosophila APC. The resulting peptide-loaded Drosophila APC were incubated with CD8+ T cells from 2 different donors (Donor 1 and Donor 2) to produce 11 different batches of CTL (Donor 1: PM1, PM2, PM3, PM4, and P14; Donor 2: PM1, PM2, PM3, PM4, P5, and P14) (Table 3).
CTL (Effector) activity was measured with a standard chromium (^51Cr) release assay, with T2 cells (Target) loaded with individual peptides and also with a number of tumor cell lines as target cells (Brunner et al., Immunology. 1968 February; 14(2):181-96). The highest Effector (E) Target (T) ratio (E/T) was 50:1, with 1:5 serial dilutions of CTL (Effector) used to produce a dose response. Before the assay, Target cells (T2 cells at 3×10^6 cells/100 ul in 1×PBS with 4% FCS) were labeled by adding 100 ul of ^51Cr (Perkin Elmer) and incubating at 37° C. for 1 hour. […]

[2] = target: T1, HLA-A2 molecules in T2 cells (Homo sapiens, UniProt P04439, D140Y/D185E/D98H/E176V/E277Q/G131W/G231S/I119V/I121R/I166T/I218V/L300P/L318F/N151K/N90K/P208A/P217A/Q86G/Q94H/R138H/R169H/T345S); test: HLA-A2 Stabilization Assay (peptide binding, T2 cells, flow cytometry); parameters: key: Strong (S); Median (M); Weak (W); None (N)
T1 construct: HLA-A2 molecules that are synthesized in a transporter associated with antigen processing (TAP)-deficient cell line, T2; host or cells: T2 cells (TAP-deficient human cell line)
Description: The assay for peptide binding to class I major histocompatibility complex (MHC/HLA-A2) molecules is based on the ability of peptides to stabilize MHC class I, HLA-A2 molecules that are synthesized in a transporter associated with antigen processing (TAP)-deficient cell line, T2 (ATCC® Number: CRL-1992). The extent of stabilization of MHC class I molecules is directly related to the binding affinity of the added peptides (Townsend et al., Cell. 1990 Jul. 27; 62(2):285-95; Andersen et al., Tissue Antigens. 1999 August; 54(2):185-90).
For the assay, T2 cells were plated in 96-well V-bottom plates, 100 ul/well RPMI media, at a density of 1×10^6 cells/ml, with final peptide concentrations of 200 uM, 20 uM, 2 uM, 200 nM, 20 nM, 2 nM, and no peptide as negative control. The cells with peptides were incubated for 18 hours at 26° C., 5% CO2. After 18 hours, the plates were transferred to 37° C., 5% CO2 and incubated for an additional 3 hours. The cells in plate were washed once with FACS buffer (PBS, 2.5% FCS, 1% NaN3) and then stained by adding 1 ul/well FITC-labeled mouse anti-human HLA-A2 antibody (BD Pharmingen, Cat. No. 551285), 1 ul/well PI, and then incubating at 4° C. for 30 minutes. After staining, cells were resuspended in 200 ul of FACS buffer and transferred from 96-well plates to racks of 96 microtubes. Samples were run on a FACScan flow cytometer and the data were analysed by using CellQuest software.
A peptide of Hepatitis B Core protein (HBC) was used as a positive control. The Hepatitis B Core peptide is a potent HLA-A2.1 epitope and consists of residue numbers 18-27 of the core sequence, amino acids […] (SEQ ID NO:73) (Zhang et al. Immunology. 2007, 121(1):105-12).

[3] = CTL generated with truncated peptides, T2 targets loaded with individual peptides
[4] = truncated versions of P3, P13, P14
[5] = T2 targets loaded with computer predicted peptides

Row | Substance | CTL Activity [1, 3] | Ability to induce CTL in normal donors [1] | HLA-A2 Binding [2, 4] | further results
1 | LVLNLLE (listed as Homo sapiens) [Peptide P3-8] | M | able to induce CTL | N | –
2 | KLHDAIVEVV (listed as Homo sapiens) [Peptide P13-16] | – | – | – | CTL Activity [1, 5]: W; HLA-A2 Binding ([2]; computer predicted peptides): M
3 | TLVDLP (listed as Homo sapiens) [Peptide P13-10] | S | – | N | –
4 | IDLPGITR (listed as Homo sapiens) [Peptide P14-14] | M | able to induce CTL | W | –
5 | LVYLGHVIYL (listed as Homo sapiens) [Peptide P3-11] | – | able to induce CTL | – | CTL Activity [1, 5]: S; HLA-A2 Binding ([2]; computer predicted peptides): W
6 | LVDLPGM (listed as Homo sapiens) [Peptide P13-13] | W | able to induce CTL | M | –
7 | NLLELVHLL (listed as Homo sapiens) [Peptide P3-9] | – | able to induce CTL | – | HLA-A2 Binding ([2]; computer predicted peptides): S
8 | FQMEQIVYC (listed as Homo sapiens) [Peptide P14-19] | – | able to induce CTL | – | CTL Activity [1, 5]: M; HLA-A2 Binding ([2]; computer predicted peptides): M
9 | TLIDLPGITRV (listed as Homo sapiens) [Peptide P14] | M | – | M | Induction of CTL in two normal donors [1]: induced CTL; CTL Activities Median [1]: 1/17; CTL Activities Strong [1]: 14/17; CTL Activities Weak [1]: 1/17; CTL Activities None [1]: 1/17
10 | FVPEVSFEL (listed as Homo sapiens) [Peptide P13-18] | – | able to induce CTL | – | CTL Activity [1, 5]: M; HLA-A2 Binding ([2]; computer predicted peptides): S
11 | KLHDAIVEV (listed as Homo sapiens) [Peptide P13-17] | – | able to induce CTL | – | CTL Activity [1, 5]: S; HLA-A2 Binding ([2]; computer predicted peptides): S
12 | TLVDLPGMTKV (listed as Homo sapiens) [Peptide P13] | M | – | M | Induction of CTL in two normal donors [1]: induced CTL; CTL Activities Median [1]: 2/13; CTL Activities Strong [1]: 4/13; CTL Activities Weak [1]: 5/13; CTL Activities None [1]: 2/13
13 | SLVLNLLEL (listed as Homo sapiens) [Peptide P3] | M | – | M | Induction of CTL in two normal donors [1]: induced CTL; CTL Activities Median [1]: 1/12; CTL Activities Strong [1]: 5/12; CTL Activities Weak [1]: 4/12; CTL Activities None [1]: 2/12
14 | LIDLPGI (listed as Homo sapiens) [Peptide P14-15] | S | able to induce CTL | W | –
15 | LVLNLLEL (listed as Homo sapiens) [Peptide P3-1] | – | – | N | –
16 | VDLPGMT (listed as Homo sapiens) [Peptide P13-14] | – | – | N | –
17 | VLNLLEL (listed as Homo sapiens) [Peptide P3-2] | – | – | N | –
18 | IDLPGIT (listed as Homo sapiens) [Peptide P14-16] | W | – | W | –
19 | TLVDLPGM (listed as Homo sapiens) [Peptide P13-8] | M | – | N | –
20 | TLIDLPGITR (listed as Homo sapiens) [Peptide P14-6] | – | – | N | –
21 | LIDLPGITR (listed as Homo sapiens) [Peptide P14-12] | – | – | N | –
22 | LVDLPGMT (listed as Homo sapiens) [Peptide P13-11] | – | – | N | –

— US8232101B2, “Identification of antigenic peptides from multiple myeloma cells” (Janssen Pharmaceutica N.V., priority 2009, dated 2012)
